Results published in ChEMBL document CHEMBL1201862, “PubChem BioAssay data set” (2004).
Where a name gives a salt, the structure may show the parent alone. Activity calls are given as the source filed them.

How the values were obtained:
[1] = molecular target: T1, Dual specificity protein phosphatase 3 (Homo sapiens, UniProt P51452); experiment: SAR VHR1 absorbance Assay for In Vitro dose response studies. [Related pubchem assays (depositor defined):AID1654, AID1661, AID1878, AID1992, AID2004]
[2] = molecular target: T1, Dual specificity protein phosphatase 3; experiment: SAR VHR1 Fluorescent Assay for In Vitro dose response studies. [Related pubchem assays (depositor defined):AID1654, AID1661, AID1878, AID1992, AID2004, AID2070, AID2085]; type: functional
[3] = molecular target: T2, Tyrosine-protein phosphatase non-receptor type 7 (Homo sapiens, UniProt P35236); experiment: redox-active compounds inhibiting HePTP phosphatase – biochemical, fluorescence, mechanism study (AID 2068); type: functional
T2 sequence (P35236 whole entry): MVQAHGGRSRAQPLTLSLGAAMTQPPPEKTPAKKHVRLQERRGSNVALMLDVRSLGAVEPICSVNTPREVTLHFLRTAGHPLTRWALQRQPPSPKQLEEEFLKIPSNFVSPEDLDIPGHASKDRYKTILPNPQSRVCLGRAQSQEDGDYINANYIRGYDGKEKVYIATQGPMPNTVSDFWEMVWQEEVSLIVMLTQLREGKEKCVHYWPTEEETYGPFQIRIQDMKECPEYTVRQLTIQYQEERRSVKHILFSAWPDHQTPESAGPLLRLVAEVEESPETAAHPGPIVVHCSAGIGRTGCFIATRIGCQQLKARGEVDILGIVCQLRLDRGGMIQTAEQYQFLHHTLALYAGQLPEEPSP

[4] = molecular target: T1, Dual specificity protein phosphatase 3; experiment: SAR VHR1 Fluorescent Assay for In Vitro dose response studies Set 2. [Related pubchem assays (depositor defined):AID1654, AID1661, AID1878]; type: functional
[5] = molecular target: T3, Dual specificity protein phosphatase 6 (Rattus norvegicus, UniProt Q64346); type: functional;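 also: confirmatory in vitro dose-response testing of MKP-3 inhibition; recombinant His-tagged MKP-3 made in E. coli BL21 with OMFP substrate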
T3 sequence (Q64346 whole entry): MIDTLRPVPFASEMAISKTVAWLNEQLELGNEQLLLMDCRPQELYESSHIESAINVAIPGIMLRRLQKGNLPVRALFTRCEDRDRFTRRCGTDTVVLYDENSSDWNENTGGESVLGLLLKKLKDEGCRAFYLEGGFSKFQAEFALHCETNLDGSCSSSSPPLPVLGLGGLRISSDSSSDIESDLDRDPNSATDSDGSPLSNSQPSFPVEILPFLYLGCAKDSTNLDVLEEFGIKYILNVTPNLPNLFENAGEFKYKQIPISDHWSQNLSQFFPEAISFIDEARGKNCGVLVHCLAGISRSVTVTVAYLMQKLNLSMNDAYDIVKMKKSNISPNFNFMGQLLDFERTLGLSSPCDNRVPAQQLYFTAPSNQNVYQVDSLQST

[6] = molecular target: T4, G-protein coupled receptor 55 (Homo sapiens, UniProt Q9Y2T6); experiment: SAR Analysis of Selective Antagonists of GPR55 using an Image-Based Assay - Set 3. [Related pubchem assays (depositor defined):AID2058, AID2079]; type: functional
[7] = molecular target: G-protein coupled receptor 35 (Homo sapiens, UniProt Q9HC97); experiment: SAR analysis of Antagonists of the GPR35 Receptor using an Image-Based Assay - Set 5. [Related pubchem assays (depositor defined):AID2058, AID2079]; type: functional
[8] = molecular target: T4, G-protein coupled receptor 55; experiment: selective activators of receptor GPR55 – imaging, U2OS cells, beta-arrestin-GFP redistribution, primary screen (AID 1961); type: functional
[9] = molecular target: NACHT, LRR and PYD domains-containing protein 1 (Homo sapiens, UniProt Q9C000); experiment: NALP1 inhibitors in yeast, dose response, luminescent (AID 488860); type: functional
[10] = NIH3T3 cell viability loss – ATP luminescence, mouse fibroblasts, counter-screen, dose response (AID 2010); type: functional, cell-based;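 also: cells exposed to compound for about 90 hours before reading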
[11] = cytotoxicity toward HT-29 cells – cell-based, CellTiter-Glo luminescence, IC50, dose response (AID 1117330); type: functional
[12] = molecular target: T4, G-protein coupled receptor 55; experiment: inhibition of LPI-stimulated GPR55 beta-arrestin translocation – imaging, U2OS, beta-arrestin-GFP, LPI agonist, primary screen (AID 2013); type: functional;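 also: antagonist potency measured as reduced agonist-driven arrestin aggregation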
[13] = luciferase reporter signal suppression in cells – H4 neuroglioma cells, luminescence, dose response (AID 1990); type: functional, cell-based
[14] = RKO cell viability reduction, dose response, CellTiter-Glo luminescence (AID 1117322); type: functional
Saccharomyces cerevisiae = experiment: S. cerevisiae Caspase-1/ASC signal blockers IC50, NALP1 inhibitor project selectivity test (AID 488863); type: functional, organism-based
[15] = Luminescence Cell-Based Dose Response HTS to Identify Inhibitors of 5'UTR Stem-Loop Driven Prion Protein mRNA Translation in H4 Neuroglioblastoma Cells. [Related pubchem assays: 1827 (Project Summary), 1813 (Primary HTS)]; type: functional
[16] = molecular target: T5, Microphthalmia-associated transcription factor (Homo sapiens, UniProt O75030); experiment: reducers of TRPM1 reporter luminescence, concentration series – cell-based, SK-MEL-5, cherry-picked, set 3, MITF inhibitor project, dose response (AID 493073); type: functional;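 also: SK-MEL-5 melanoma cells with luciferase driven by the MITF target TRPM1 promoter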
T5 sequence (O75030 whole entry): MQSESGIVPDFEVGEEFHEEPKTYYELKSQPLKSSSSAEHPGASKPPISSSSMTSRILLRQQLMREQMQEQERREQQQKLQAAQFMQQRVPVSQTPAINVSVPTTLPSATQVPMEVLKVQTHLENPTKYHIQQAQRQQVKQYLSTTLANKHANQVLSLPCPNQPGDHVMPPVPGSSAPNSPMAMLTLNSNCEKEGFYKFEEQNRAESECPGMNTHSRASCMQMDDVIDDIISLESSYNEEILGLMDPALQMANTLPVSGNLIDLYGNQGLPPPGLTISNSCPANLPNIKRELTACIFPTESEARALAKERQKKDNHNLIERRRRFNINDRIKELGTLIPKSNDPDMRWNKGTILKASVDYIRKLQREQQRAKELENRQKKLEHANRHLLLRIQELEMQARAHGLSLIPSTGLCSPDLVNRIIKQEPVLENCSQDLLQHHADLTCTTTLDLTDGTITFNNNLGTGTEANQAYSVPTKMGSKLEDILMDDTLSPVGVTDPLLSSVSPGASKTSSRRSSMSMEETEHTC

[17] = cytotoxicity toward Colo320 cells – cell-based, CellTiter-Glo luminescence, IC50, dose response (AID 1117334); type: functional; details: COLO 320
[18] = CellTiter-Glo luminescence survival assay, SW480 colon tumor line, concentration-response curve, half-maximal inhibitory concentration (AID 1117338); type: functional
[19] = cytotoxicity toward HCT116 cells – cell-based, CellTiter-Glo luminescence, IC50, dose response (AID 1117332); type: functional; details: HCT-116
[20] = SNU-C1 cell viability reduction, dose response, CellTiter-Glo luminescence (AID 1117323); type: functional, cell-based
[21] = HCT116 cell viability decrease, GSK3B pretreatment – CellTiter-Glo, IC50, dose response (AID 1117339); type: functional; details: HCT-116
[22] = Trypanosoma cruzi growth suppression in host cells – NIH3T3 host cells, beta-gal luminescence, confirmation (AID 2044); type: functional, cell-based;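 also: intracellular parasites grown in NIH/3T3 mouse fibroblasts as host cells; luminescent beta-galactosidase reporter signal from transgenic T. cruzi replicating inside host cells; inhibitors lower the luminescence signal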
[23] = viability loss of HPDE-C7K cells – cell-based, fluorescence, HTS, primary screen (AID 431); type: functional; details: Homo sapiens
[24] = Reduced DLD-1 viability, concentration-response, CellTiter-Glo luminescence (AID 1117352); type: functional
INS1 = experiment: INS-1E survival protection against cytokine death – cell-based, luminescence, retest, dose response (AID 449756); type: functional; details: Rattus norvegicus;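 also: cell death triggered by IL-1 beta plus TNF-alpha plus IFN-gamma mixture; protective hits raise ATP signal compared with cytokine alone wells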
[25] = HPDE-C7 pancreatic duct cell viability loss – fluorescence, HTS (AID 430); type: functional, cell-based; details: Homo sapiens
[26] = alpha-synuclein stem-loop luciferase translation blockers – H4 neuroglioma cells, luminescence, confirmation (AID 1988); type: functional, cell-based
[27] = molecular target: T6, Ubiquitin-conjugating enzyme E2 N (Homo sapiens, UniProt P61088); type: functional;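 also: Dose-response confirmation in a TR-FRET assay detecting UBC13-driven polyubiquitin chain formation, inhibition measured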
T6 sequence (P61088 whole entry): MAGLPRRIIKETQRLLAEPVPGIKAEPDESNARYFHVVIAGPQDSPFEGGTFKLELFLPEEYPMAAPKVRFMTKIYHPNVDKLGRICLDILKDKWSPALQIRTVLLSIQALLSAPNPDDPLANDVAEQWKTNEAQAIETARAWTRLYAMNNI

[28] = molecular target: T7, Kappa-type opioid receptor (Homo sapiens, UniProt P41145); experiment: SAR analysis of small molecule antagonists of the kappa opioid receptor via a luminescent beta-arrestin assay - Set 3. [Related pubchem assays (depositor defined):AID1777, AID1778, AID1785, AID1786, AID1966, AID2133, AID2136, AID2285, AID2495]; type: functional
[29] = molecular target: T7, Kappa-type opioid receptor; experiment: SAR analysis of Antagonists of the Kappa Opioid Receptor (KOR) using an Image-Based Assay - Set 4. [Related pubchem assays (depositor defined):AID1777, AID1785]; type: functional
Mu-type opioid receptor = Mu-type opioid receptor (Homo sapiens, UniProt P35372); experiment: SAR Analysis of Antagonists of the MOR Receptor using an Image-Based Assay - Set 3. [Related pubchem assays (depositor defined):AID1777, AID1785, AID1786, AID1966, AID2133, AID2136, AID2284, AID2285, AID2420]; type: functional
[30] = molecular target: Delta-type opioid receptor (Homo sapiens, UniProt P41143); experiment: SAR Analysis of Antagonists of the DOR Receptor using an Image-Based Assay - Set 3. [Related pubchem assays (depositor defined):AID1777, AID1785]; type: functional;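 also: U2OS cells expressing DOR1 and beta-arrestin GFP stimulated with 100 nM SNC80; imaging of GFP-tagged beta-arrestin moving into spots after receptor activation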
[31] = NIH/3T3 cell viability loss – mouse embryonic fibroblasts, dry powder, set 2, cytotoxicity control, dose response (AID 493247); type: functional, cell-based; details: Fibroblast
Trypanosoma cruzi = experiment: anti-trypanosomal activity in host cells – cell-based, plate reader, dry powder, set 3, dose response (AID 493197); type: functional
Perilipin-1/ABHD5 = Perilipin-1/ABHD5 (Homo sapiens, UniProt O60240+Q8WTS1); experiment: Luminescence-based biochemical high throughput dose response assay for inhibitors of the interaction of the lipase co-activator protein, abhydrolase domain containing 5 (ABHD5) with perilipin-1 (PLIN1) (2K validation set). [Related pubchem assays (depositor defined):AID493027, AID493057]
Cytochrome P450 2C9 = Cytochrome P450 2C9 (Homo sapiens, UniProt P11712)
Cytochrome P450 2D6 = Cytochrome P450 2D6 (Homo sapiens, UniProt P10635);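 also: CYP2D6 member of a cytochrome P450 panel assay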
[32] = molecular target: T8, Mannose-6-phosphate isomerase (Homo sapiens, UniProt P34949); experiment: MPI inhibition at elevated mannose 6-phosphate – biochemical, fluorescence intensity, high mannose 6-phosphate, primary screen (AID 1220)
T8 sequence (P34949 whole entry): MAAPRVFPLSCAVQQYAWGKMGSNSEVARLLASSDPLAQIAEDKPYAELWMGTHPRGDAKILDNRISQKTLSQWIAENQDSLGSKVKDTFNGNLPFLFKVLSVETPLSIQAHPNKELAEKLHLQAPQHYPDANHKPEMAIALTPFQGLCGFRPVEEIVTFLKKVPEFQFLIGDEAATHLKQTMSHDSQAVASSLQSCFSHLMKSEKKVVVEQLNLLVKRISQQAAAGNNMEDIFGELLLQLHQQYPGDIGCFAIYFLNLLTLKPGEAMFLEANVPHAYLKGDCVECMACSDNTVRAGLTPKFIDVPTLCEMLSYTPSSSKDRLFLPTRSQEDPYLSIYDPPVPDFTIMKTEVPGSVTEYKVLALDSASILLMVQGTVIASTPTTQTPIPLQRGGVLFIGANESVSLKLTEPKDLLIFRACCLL

[33] = molecular target: 1-acylglycerol-3-phosphate O-acyltransferase ABHD5/Perilipin-5 (Homo sapiens, UniProt Q00G26+Q8WTS1); experiment: Luminescence-based biochemical high throughput dose response assay for inhibitors of the interaction of the lipase co-activator protein, abhydrolase domain containing 5 (ABHD5) with perilipin-5 (MLDP; PLIN5) (2K validation set). [Related pubchem assays (depositor defined):AID493035, AID493241]

T4 sequence (Q9Y2T6 whole entry): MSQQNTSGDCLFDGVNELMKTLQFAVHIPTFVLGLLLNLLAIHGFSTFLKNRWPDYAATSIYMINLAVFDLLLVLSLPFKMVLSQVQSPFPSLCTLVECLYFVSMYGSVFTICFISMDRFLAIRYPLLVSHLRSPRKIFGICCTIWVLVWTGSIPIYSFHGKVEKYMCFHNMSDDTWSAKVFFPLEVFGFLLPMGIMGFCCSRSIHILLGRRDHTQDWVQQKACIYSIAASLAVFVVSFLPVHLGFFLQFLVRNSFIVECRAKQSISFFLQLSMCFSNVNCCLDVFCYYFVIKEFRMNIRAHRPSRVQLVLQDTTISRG
T1 sequence (P51452 whole entry): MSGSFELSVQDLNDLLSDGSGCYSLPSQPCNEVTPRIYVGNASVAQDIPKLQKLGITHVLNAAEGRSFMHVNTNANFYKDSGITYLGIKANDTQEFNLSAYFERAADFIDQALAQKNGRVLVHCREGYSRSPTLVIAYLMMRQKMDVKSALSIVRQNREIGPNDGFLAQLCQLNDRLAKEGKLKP
T7 sequence (P41145 whole entry): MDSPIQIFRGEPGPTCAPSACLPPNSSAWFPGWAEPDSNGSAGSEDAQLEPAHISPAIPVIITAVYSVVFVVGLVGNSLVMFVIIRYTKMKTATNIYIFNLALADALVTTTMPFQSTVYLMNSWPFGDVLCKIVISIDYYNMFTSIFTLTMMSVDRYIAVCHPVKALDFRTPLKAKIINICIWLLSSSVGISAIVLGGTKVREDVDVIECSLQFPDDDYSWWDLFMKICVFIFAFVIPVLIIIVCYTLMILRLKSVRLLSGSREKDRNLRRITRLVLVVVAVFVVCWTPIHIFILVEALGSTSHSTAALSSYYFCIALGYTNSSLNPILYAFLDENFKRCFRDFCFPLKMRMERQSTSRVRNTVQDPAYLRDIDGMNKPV
Chain of Perilipin-1/ABHD5 (Q8WTS1 whole entry, the tested form may be a part): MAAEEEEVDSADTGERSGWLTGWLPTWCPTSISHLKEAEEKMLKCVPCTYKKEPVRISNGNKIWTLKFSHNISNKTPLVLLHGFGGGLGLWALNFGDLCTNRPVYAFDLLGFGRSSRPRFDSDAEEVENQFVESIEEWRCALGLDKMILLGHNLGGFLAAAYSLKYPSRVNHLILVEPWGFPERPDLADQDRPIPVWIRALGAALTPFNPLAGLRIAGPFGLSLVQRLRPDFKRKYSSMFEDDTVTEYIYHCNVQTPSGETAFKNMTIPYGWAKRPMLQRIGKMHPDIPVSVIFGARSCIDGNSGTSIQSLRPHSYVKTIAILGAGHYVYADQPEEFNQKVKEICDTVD
Chain of Perilipin-1/ABHD5 (O60240 whole entry, the tested form may be a part): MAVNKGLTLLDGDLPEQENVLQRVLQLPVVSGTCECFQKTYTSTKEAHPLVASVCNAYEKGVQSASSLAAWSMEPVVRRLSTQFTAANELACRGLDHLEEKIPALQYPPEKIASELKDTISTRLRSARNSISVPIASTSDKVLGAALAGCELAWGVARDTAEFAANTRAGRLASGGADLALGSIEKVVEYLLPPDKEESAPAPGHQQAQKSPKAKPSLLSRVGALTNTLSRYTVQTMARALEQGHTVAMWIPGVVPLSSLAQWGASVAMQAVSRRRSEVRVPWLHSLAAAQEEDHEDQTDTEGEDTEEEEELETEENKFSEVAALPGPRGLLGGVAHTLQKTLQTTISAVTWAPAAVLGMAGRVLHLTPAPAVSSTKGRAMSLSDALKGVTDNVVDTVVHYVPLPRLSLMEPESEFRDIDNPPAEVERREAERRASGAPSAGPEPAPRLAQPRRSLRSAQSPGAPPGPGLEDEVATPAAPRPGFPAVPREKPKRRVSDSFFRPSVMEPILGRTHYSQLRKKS
Chain of G-protein coupled receptor 35 (Q9HC97 whole entry): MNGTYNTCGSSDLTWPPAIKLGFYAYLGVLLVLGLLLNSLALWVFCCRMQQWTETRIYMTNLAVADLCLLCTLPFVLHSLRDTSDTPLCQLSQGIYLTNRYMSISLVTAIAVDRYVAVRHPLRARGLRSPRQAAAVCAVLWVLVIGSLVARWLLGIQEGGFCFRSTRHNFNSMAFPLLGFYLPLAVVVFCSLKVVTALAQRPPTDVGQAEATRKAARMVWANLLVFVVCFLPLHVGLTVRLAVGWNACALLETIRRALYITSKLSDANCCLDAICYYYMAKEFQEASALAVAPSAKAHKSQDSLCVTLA
Chain of NACHT, LRR and PYD domains-containing protein 1 (Q9C000 1-1212 limits assumed): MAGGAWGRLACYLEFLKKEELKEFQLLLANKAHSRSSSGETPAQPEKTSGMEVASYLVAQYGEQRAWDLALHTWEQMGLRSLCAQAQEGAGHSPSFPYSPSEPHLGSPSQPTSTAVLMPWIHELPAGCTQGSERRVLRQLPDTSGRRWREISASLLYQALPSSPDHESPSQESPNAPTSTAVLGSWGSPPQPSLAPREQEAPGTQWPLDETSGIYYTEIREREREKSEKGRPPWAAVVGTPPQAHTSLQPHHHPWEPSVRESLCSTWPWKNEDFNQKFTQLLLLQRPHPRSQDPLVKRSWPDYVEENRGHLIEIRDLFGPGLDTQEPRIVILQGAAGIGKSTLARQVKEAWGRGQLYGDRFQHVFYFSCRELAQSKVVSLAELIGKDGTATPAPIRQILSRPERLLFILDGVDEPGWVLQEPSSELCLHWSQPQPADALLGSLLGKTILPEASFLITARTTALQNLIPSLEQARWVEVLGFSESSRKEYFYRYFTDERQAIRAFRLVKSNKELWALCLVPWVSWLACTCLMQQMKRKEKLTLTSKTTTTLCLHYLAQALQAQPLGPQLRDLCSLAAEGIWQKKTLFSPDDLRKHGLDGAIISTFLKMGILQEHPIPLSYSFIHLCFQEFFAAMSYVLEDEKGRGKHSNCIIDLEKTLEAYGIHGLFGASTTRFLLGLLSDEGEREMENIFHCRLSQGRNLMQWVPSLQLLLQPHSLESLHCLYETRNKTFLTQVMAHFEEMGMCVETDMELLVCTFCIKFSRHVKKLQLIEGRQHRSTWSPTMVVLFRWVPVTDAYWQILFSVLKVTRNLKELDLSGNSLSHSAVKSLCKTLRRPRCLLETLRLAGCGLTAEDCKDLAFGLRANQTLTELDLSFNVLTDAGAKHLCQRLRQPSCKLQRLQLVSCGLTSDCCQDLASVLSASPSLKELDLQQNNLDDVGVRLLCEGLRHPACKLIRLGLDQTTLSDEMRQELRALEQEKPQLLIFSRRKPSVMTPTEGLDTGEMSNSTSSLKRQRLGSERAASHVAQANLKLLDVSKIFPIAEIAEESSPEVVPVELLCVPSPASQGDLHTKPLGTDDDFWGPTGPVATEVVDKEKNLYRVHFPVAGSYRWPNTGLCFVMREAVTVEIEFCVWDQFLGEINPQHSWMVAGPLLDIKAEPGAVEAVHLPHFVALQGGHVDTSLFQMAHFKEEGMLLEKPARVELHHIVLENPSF
Chain of NACHT, LRR and PYD domains-containing protein 1 (Q9C000 1213-1473 limits assumed): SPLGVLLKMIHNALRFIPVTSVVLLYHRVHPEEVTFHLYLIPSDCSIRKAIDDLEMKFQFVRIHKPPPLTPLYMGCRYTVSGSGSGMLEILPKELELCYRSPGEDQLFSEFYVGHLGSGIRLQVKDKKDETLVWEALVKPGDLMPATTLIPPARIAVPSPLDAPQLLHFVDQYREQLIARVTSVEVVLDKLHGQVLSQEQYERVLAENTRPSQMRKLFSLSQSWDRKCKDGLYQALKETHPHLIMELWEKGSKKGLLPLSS
Chain of Mu-type opioid receptor (P35372 whole entry): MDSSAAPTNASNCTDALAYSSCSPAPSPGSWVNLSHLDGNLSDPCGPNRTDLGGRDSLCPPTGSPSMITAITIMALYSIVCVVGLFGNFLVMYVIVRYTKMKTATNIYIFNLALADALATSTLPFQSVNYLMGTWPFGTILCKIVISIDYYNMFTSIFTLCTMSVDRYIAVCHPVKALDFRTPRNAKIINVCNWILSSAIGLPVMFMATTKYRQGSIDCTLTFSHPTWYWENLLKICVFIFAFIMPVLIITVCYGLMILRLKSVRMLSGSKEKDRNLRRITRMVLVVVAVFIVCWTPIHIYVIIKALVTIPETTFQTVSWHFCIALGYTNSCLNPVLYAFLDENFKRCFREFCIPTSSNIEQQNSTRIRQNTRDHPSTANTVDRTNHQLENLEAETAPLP
Chain of Delta-type opioid receptor (P41143 whole entry): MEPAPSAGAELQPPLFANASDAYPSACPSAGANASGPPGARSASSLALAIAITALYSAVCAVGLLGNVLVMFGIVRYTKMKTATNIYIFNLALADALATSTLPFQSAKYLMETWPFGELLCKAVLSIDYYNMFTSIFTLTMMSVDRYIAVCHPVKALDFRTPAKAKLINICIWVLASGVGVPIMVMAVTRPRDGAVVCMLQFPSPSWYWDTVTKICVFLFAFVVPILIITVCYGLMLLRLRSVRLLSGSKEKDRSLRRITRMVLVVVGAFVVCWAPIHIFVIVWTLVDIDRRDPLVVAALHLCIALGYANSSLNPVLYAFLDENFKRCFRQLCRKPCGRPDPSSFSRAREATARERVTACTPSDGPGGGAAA
Chain of Cytochrome P450 2C9 (P11712 whole entry): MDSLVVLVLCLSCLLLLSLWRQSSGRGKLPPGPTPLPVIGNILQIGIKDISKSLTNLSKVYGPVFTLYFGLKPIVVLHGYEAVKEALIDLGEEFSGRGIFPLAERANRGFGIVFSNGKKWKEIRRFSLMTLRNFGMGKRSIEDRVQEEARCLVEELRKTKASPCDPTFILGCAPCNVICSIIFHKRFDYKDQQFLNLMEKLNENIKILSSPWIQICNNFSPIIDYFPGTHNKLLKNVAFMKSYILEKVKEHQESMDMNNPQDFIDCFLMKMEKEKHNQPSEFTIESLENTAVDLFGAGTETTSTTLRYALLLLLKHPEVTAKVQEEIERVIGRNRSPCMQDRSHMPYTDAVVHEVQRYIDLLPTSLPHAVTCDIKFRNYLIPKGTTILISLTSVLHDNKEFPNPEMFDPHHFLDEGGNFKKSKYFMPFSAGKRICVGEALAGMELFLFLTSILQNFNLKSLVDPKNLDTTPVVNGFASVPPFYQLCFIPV

CNS(=O)(=O)c1cccc(C(=O)NC2CCSc3ccccc32)c1 (stereo not given)
inactive: IC50 [1] > 100 µM | IC50 [2] > 100 µM | IC50 [3] > 100 µM | IC50 [4] > 100 µM | IC50 [5] > 100 µM

COC(=O)c1cnn(-c2ccccc2)c1/C=N/NC(N)=S
inactive: IC50 [6] > 32 µM | IC50 [7] > 32 µM

COc1ccc(-c2cc(C(F)(F)F)n3nc(C(=O)NCc4ccco4)cc3n2)cc1
inactive: EC50 [8] > 32 µM

C1CCC(C(CC2CCCCN2)C2CCCCC2)CC1 (stereo not given) [PERHEXILINE MALEATE]
> 120 µM (not active): EC50 [13] | EC50 [15]
active: IC50 [9] 12.9 µM | EC50 [10] 14.2 µM | IC50 [12] 3.19 µM | IC50 (Saccharomyces cerevisiae) 15.9 µM | AC50 [16] 18.8 µM | IC50 [20] 2.48 µM | EC50 [22] 3.13 µM | EC50 [23] 10.8 µM | AC50 (INS1) 6.42 µM | EC50 [25] 11.7 µM | EC50 [26] 8.95 µM
inactive: IC50 [11] 6.87 µM | IC50 [14] 7.85 µM | IC50 [17] 8.86 µM | IC50 [18] 5.76 µM | IC50 [19] > 20 µM | IC50 [21] 7.42 µM | IC50 [24] > 20 µM | IC50 [27] > 20 µM

CCN(CCNC(=O)c1ccc(CNS(=O)(=O)c2ccccc2)cc1)Cc1ccccc1
active: IC50 [28] 4.86 µM | IC50 (Mu-type opioid receptor) 2.03 µM
inactive: IC50 [29] 12.1 µM | IC50 [30] > 32 µM

CCCNC(=O)C1(C)CCCN(Cc2ccc(Oc3ccccc3)cc2)C1 (stereo not given)
active: AC50 [31] 22.9 µM | AC50 (Trypanosoma cruzi) 8.72 µM

Nc1cc(-c2ccncc2)c[nH]c1=O [INAMRINONE]
inactive: IC50 (Perilipin-1/ABHD5) > 79.5 µM | IC50 [33] 78.8 µM
> 50 µM (not active): IC50 [32]
inconclusive: AC50 (Cytochrome P450 2C9) 12.6 µM | AC50 (Cytochrome P450 2D6) 12.6 µM
